# Where “and” joins values, the source holds several entries; their conditions need not be identical. Equal values may be shown once.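 Compound exposure: 48 hours, 5 concentrations, 96-well plates. GI50: concentration for 50% inhibition of growth.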 Calls of active or inactive are those of the source. Cut-off read from the data, not from the text of the source: active = GI50 up to about 1.1 µM and inactive = higher.
# Experiments:
# Test in all cases: growth of human tumour cells (NCI), 48 h
# [1] = system: NCI-H460
# [2] = system: NCI-H23
# [3] = system: SK-MEL-5
# [4] = system: K562
# [5] = system: SK-OV-3
# [6] = system: ACHN
# [7] = system: MDA-MB-435
# [8] = system: SK-MEL-28
# [9] = system: CAKI-1
# [10] = system: MCF7
# [11] = system: CCRF-CEM
# [12] = system: SR
# [13] = system: SNB-75
# [14] = system: A549
# [15] = system: IGROV-1
# [16] = system: EKVX
# [17] = system: HCC 2998
# [18] = system: SF-539
# [19] = system: HOP-92
# [20] = system: OVCAR-5
SMILES,GI50 [1],GI50 [2],GI50 [3],GI50 [4],GI50 [5],GI50 [6],GI50 [7],GI50 [8],GI50 [9],GI50 [10],GI50 [11],GI50 [12],GI50 [13],GI50 [14],GI50 [15],GI50 [16],GI50 [17],GI50 [18],GI50 [19],GI50 [20]
COc1ccc(C(=O)/C=C/c2ccc(OCCSCCCCCCCCCCSCCOc3ccc(/C=C/C(=O)c4ccc(OC)c(OC)c4)cc3)cc2)cc1OC,> 100 µM (inactive),> 100 µM (inactive),> 100 µM (inactive),> 100 µM (inactive),> 100 µM (inactive),> 100 µM (inactive),> 100 µM (inactive),> 100 µM (inactive),> 100 µM (inactive),> 100 µM (inactive),> 100 µM (inactive),> 100 µM (inactive),> 100 µM (inactive),> 100 µM (inactive),> 100 µM (inactive),> 100 µM (inactive),> 100 µM (inactive),> 100 µM (inactive),–,–
CN(C)CCNCCN,> 100 µM (inactive),> 100 µM (inactive),> 100 µM (inactive),> 100 µM (inactive),> 100 µM (inactive),> 100 µM (inactive),> 100 µM (inactive),> 100 µM (inactive),> 100 µM (inactive),> 100 µM (inactive),–,> 100 µM (inactive),–,> 100 µM (inactive),> 100 µM (inactive),> 100 µM (inactive),–,> 100 µM (inactive),> 100 µM (inactive),> 100 µM (inactive)
COc1cc2c(cc1O)C1Cc3ccc(OC)c(O)c3C(C2)N1C (configuration not stated),94 µM (inactive),> 100 µM (inactive),> 100 µM (inactive),–,> 100 µM (inactive),> 100 µM (inactive),> 100 µM (inactive),> 100 µM (inactive),> 100 µM (inactive),> 100 µM (inactive),> 100 µM (inactive),–,–,> 100 µM (inactive),> 100 µM (inactive),> 100 µM (inactive),> 100 µM (inactive),> 100 µM (inactive),17.5 µM (inactive),> 100 µM (inactive)
CC(C)=CCC/C(C)=C/Cc1c2c(c3oc(-c4ccc(O)c(O)c4)c(O)c(=O)c3c1O)C=CC(C)(C)O2,3.37 µM (inactive),5.41 µM (inactive),2.95 µM (inactive),2.44 µM (inactive),2.57 µM (inactive),2.22 µM (inactive),5.33 µM (inactive),4.37 µM (inactive),1.78 µM (inactive),2.79 µM (inactive),1.79 µM (inactive),1.84 µM (inactive),5.22 µM (inactive),3.87 µM (inactive),2.11 µM (inactive),–,–,1.79 µM (inactive),–,7.18 µM (inactive)
NCCN1CCCCCc2ccccc21,> 10 µM (inactive),> 10 µM (inactive),> 10 µM (inactive),> 10 µM (inactive),> 10 µM (inactive),> 10 µM (inactive),> 10 µM (inactive),> 10 µM (inactive),> 10 µM (inactive),> 10 µM (inactive),> 10 µM (inactive),> 10 µM (inactive),> 10 µM (inactive),> 10 µM (inactive),> 10 µM (inactive),> 10 µM (inactive),> 10 µM (inactive),> 10 µM (inactive),–,–
OCc1cc2c([nH]c3ccccc32)c(C(O)CO)n1 (configuration not stated),> 100 µM (inactive),> 100 µM (inactive),> 100 µM (inactive),> 100 µM (inactive),> 100 µM (inactive),> 100 µM (inactive),> 100 µM (inactive),> 100 µM (inactive),> 100 µM (inactive),> 100 µM (inactive),> 100 µM (inactive),–,> 100 µM (inactive),> 100 µM (inactive),> 100 µM (inactive),> 100 µM (inactive),> 100 µM (inactive),> 100 µM (inactive),> 100 µM (inactive),> 100 µM (inactive)
O=C(/C=C1\Nc2ccc([N+](=O)[O-])cc2N=C1NC12CC3CC(CC(C3)C1)C2)c1ccccc1,> 10 µM (inactive),> 10 µM (inactive),> 10 µM (inactive),–,3.77 µM (inactive),> 10 µM (inactive),> 10 µM (inactive),> 10 µM (inactive),> 10 µM (inactive),> 10 µM (inactive),–,–,> 10 µM (inactive),–,> 10 µM (inactive),> 10 µM (inactive),> 10 µM (inactive),5.41 µM (inactive),–,> 10 µM (inactive)
CC(=O)NC(Cc1ccc(OP(=O)(OCc2ccc([N+](=O)[O-])o2)N(C)CCCCCl)cc1)C(=O)NC(C)c1ccc(OCC2CCCCC2)c(C(N)=O)c1 (configuration not stated),3.44 µM (inactive),2.21 µM (inactive),1.61 µM (inactive),3.91 µM (inactive),11.5 µM (inactive),8.15 µM (inactive),2.31 µM (inactive),2.12 µM (inactive),21.3 µM (inactive),2.25 µM (inactive),1.33 µM (inactive),2.21 µM (inactive),–,4.12 µM (inactive),2.7 µM (inactive),–,1.82 µM (inactive),2.08 µM (inactive),–,7.35 µM (inactive)
Cn1c(=O)c2c(ncn2Cc2ccc(O)c([N+](=O)[O-])c2)n(C)c1=O,> 100 µM (inactive),> 100 µM (inactive),> 100 µM (inactive),> 100 µM (inactive),> 100 µM (inactive),> 100 µM (inactive),> 100 µM (inactive),> 100 µM (inactive),> 100 µM (inactive),> 100 µM (inactive),> 100 µM (inactive),> 100 µM (inactive),> 100 µM (inactive),> 100 µM (inactive),> 100 µM (inactive),> 100 µM (inactive),–,> 100 µM (inactive),–,> 100 µM (inactive)
COC(=O)C(=O)C(C(=O)C(=O)Nc1cccc(OC)c1)c1nc2ccc(Cl)cc2nc1O (configuration not stated),> 100 µM (inactive),> 100 µM (inactive),> 100 µM (inactive),> 100 µM (inactive),> 100 µM (inactive),> 100 µM (inactive),83.6 µM (inactive),> 100 µM (inactive),> 100 µM (inactive),> 100 µM (inactive),12.9 µM (inactive),–,> 100 µM (inactive),> 100 µM (inactive),> 100 µM (inactive),27.6 µM (inactive),96.2 µM (inactive),> 100 µM (inactive),74.5 µM (inactive),> 100 µM (inactive)
C#CCOC(=O)C(N)CS (configuration not stated),–,> 100 µM (inactive),> 100 µM (inactive),> 100 µM (inactive),> 100 µM (inactive),> 100 µM (inactive),> 100 µM (inactive),> 100 µM (inactive),> 100 µM (inactive),> 100 µM (inactive),> 100 µM (inactive),–,> 100 µM (inactive),> 100 µM (inactive),> 100 µM (inactive),> 100 µM (inactive),–,–,> 100 µM (inactive),> 100 µM (inactive)
O=C1/C(=C/c2ccco2)NC(=S)N1CN1CCCCC1,–,> 100 µM (inactive),57.8 µM (inactive),60.1 µM (inactive),> 100 µM (inactive),34 µM (inactive),> 100 µM (inactive),> 100 µM (inactive),–,36.3 µM (inactive),21.8 µM (inactive),34.5 µM (inactive),58.5 µM (inactive),> 100 µM (inactive),81.3 µM (inactive),98.4 µM (inactive),–,–,> 100 µM (inactive),> 100 µM (inactive)
O=c1[nH]nc(Cc2ccccc2)n1O,–,> 100 µM (inactive),> 100 µM (inactive),> 100 µM (inactive),> 100 µM (inactive),> 100 µM (inactive),> 100 µM (inactive),> 100 µM (inactive),> 100 µM (inactive),> 100 µM (inactive),> 100 µM (inactive),> 100 µM (inactive),–,> 100 µM (inactive),> 100 µM (inactive),> 100 µM (inactive),–,> 100 µM (inactive),> 100 µM (inactive),–
CCOc1ccc2nc3cc(/N=N/c4ccc(N)nc4N)ccc3c(N)c2c1,21.3 µM (inactive),3.94 µM (inactive),17.3 µM (inactive),0.299 µM (active),7 µM (inactive),18.2 µM (inactive),3.03 µM (inactive),15.6 µM (inactive),36.4 µM (inactive),3.15 µM (inactive),0.136 µM (active),–,1.41 µM (inactive),15 µM (inactive),23.6 µM (inactive),7.96 µM (inactive),1.79 µM (inactive),2.05 µM (inactive),9.06 µM (inactive),21.1 µM (inactive)
COC(=O)[C@@H]1CC(C(C[N+](=O)[O-])c2ccc(O[Si](C)(C)C(C)(C)C)cc2)C(=O)N1C(=O)OC(C)(C)C (some centres not stated),–,–,–,22.9 µM (inactive) and 32.4 µM (inactive),> 100 µM (inactive),–,> 100 µM (inactive) and 73.5 µM (inactive),> 100 µM (inactive),> 100 µM (inactive) and 90.4 µM (inactive),45.5 µM (inactive) and 29.6 µM (inactive),27.7 µM (inactive) and 18.1 µM (inactive),21 µM (inactive) and 33.8 µM (inactive),> 100 µM (inactive),67.6 µM (inactive) and 37.4 µM (inactive),> 100 µM (inactive),> 100 µM (inactive) and 61.5 µM (inactive),–,> 100 µM (inactive),40.1 µM (inactive) and 61 µM (inactive),> 100 µM (inactive)
CN(C)CCCCN1CCc2c(n(C)c3ccccc23)C1=O,–,82 µM (inactive),21.3 µM (inactive),23.4 µM (inactive),> 70 µM (inactive),> 77.1 µM (inactive),17.5 µM (inactive),20.3 µM (inactive),> 55.8 µM (inactive),37.3 µM (inactive),67.9 µM (inactive),–,34.1 µM (inactive),64.7 µM (inactive),> 72.6 µM (inactive),51.5 µM (inactive),–,–,32 µM (inactive),–

# Source: ChEMBL document CHEMBL1201862, “PubChem BioAssay data set” (2004)
